Source: ChEMBL document CHEMBL1828515, “Pantolactams as androgen receptor antagonists for the topical suppression of sebum production” (Bioorg Med Chem Lett, 2011)
pIC50: −log10 of the molar value.

Columns and labels:
Androgen receptor [1] = biological target: T1, Androgen receptor (Homo sapiens, UniProt P10275); experiment: Binding affinity to human androgen receptor
T1 sequence (P10275 whole entry): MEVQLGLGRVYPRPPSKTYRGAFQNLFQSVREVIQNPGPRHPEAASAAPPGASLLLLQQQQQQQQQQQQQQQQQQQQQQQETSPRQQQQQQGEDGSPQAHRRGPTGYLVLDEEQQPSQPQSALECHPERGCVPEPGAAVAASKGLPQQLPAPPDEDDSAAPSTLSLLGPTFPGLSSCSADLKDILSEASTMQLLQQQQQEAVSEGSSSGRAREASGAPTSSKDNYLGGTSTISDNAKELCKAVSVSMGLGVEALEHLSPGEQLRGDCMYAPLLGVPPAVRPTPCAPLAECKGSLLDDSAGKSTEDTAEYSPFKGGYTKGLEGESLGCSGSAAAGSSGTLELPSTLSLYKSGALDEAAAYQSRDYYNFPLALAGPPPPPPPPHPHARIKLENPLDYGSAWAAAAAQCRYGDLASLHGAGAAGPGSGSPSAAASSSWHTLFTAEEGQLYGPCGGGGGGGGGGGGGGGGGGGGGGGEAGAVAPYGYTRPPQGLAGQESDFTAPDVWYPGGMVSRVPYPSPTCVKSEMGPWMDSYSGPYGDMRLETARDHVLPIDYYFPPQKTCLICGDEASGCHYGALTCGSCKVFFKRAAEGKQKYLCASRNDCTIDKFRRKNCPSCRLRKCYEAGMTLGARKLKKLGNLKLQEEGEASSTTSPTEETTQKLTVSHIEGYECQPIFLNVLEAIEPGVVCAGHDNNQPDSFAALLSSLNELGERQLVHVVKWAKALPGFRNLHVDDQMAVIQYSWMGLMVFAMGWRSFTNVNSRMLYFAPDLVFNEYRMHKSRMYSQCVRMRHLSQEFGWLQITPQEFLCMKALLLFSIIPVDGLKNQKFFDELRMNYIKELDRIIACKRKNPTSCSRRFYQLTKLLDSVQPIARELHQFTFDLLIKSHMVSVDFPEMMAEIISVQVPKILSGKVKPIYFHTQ

Androgen receptor [2] = biological target: T1, Androgen receptor; experiment: Antagonist activity at human androgen receptor by cell based assay; assay type: functional
Syrian golden hamster [3] = experiment: Reduction of wax ester in Syrian golden hamster ear model at 1 % administered topically; assay type: functional, Mesocricetus auratus; set-up: scale not given: the % may be the effect or the level left
Syrian golden hamster [4] = experiment: Reduction of cholesterol ester in Syrian golden hamster ear model at 1 % administered topically; assay type: functional, Mesocricetus auratus; set-up: scale not given: the % may be the effect or the level left
Syrian golden hamster [5] = experiment: Reduction of cholesterol ester in Syrian golden hamster ear model at 2 % administered topically; assay type: functional, Mesocricetus auratus; set-up: scale not given: the % may be the effect or the level left
Syrian golden hamster [6] = experiment: Reduction of wax ester in Syrian golden hamster ear model at 2 % administered topically; assay type: functional, Mesocricetus auratus; set-up: scale not given: the % may be the effect or the level left
Syrian golden hamster [7] = experiment: Reduction of wax ester in Syrian golden hamster ear model at 3 % administered topically; assay type: functional, Mesocricetus auratus; set-up: scale not given: the % may be the effect or the level left
Syrian golden hamster [8] = experiment: Reduction of cholesterol ester in Syrian golden hamster ear model at 3 % administered topically; assay type: functional, Mesocricetus auratus; set-up: scale not given: the % may be the effect or the level left
Syrian golden hamster [9] = experiment: Reduction of cholesterol ester in Syrian golden hamster ear model at 1.5 % administered topically; assay type: functional, Mesocricetus auratus; set-up: scale not given: the % may be the effect or the level left
Syrian golden hamster [10] = experiment: Reduction of wax ester in Syrian golden hamster ear model at 1.5 % administered topically; assay type: functional, Mesocricetus auratus; set-up: scale not given: the % may be the effect or the level left

Q: With CC1(C)COC(=O)[C@@H]1Oc1ccc(C#N)c(C(F)(F)F)c1 as the molecule, how does the pIC50 (Androgen receptor [1]) read?
A: 7.15

Q: And the pIC50 (Androgen receptor [2])?
A: 7.38

Q: How did the pIC50 (Androgen receptor [1]) turn out when CC1(C)COC(=O)[C@H]1Oc1ccc(C#N)c(C(F)(F)F)c1 was run?
A: 5.00

Q: What about the pIC50 (Androgen receptor [2]) of the same molecule?
A: 6.00

Q: With CC1(C)COC(=O)C1Oc1ccc(C#N)c(C(F)(F)F)c1 (racemic) as the molecule, how does the pIC50 (Androgen receptor [1]) read?
A: 6.95

Q: What about the pIC50 (Androgen receptor [2]) of the same molecule?
A: 7.15

Q: CC1(C)CNC(=O)C1Oc1ccc(C#N)c(C(F)(F)F)c1 (racemic) was tested. Which pIC50 (Androgen receptor [1]) did it give?
A: 5.55

Q: What about the pIC50 (Androgen receptor [2]) of the same molecule?
A: 7.09

Q: With CN1CC(C)(C)C(Oc2ccc(C#N)c(C(F)(F)F)c2)C1=O (racemic) as the molecule, how does the pIC50 (Androgen receptor [1]) read?
A: 5.92

Q: How did the pIC50 (Androgen receptor [2]) turn out when CCCN1CC(C)(C)C(Oc2ccc(C#N)c(C(F)(F)F)c2)C1=O (racemic) was run?
A: 7.62

Q: How did the pIC50 (Androgen receptor [1]) turn out when CCCCN1CC(C)(C)C(Oc2ccc(C#N)c(C(F)(F)F)c2)C1=O (racemic) was run?
A: 6.92

Q: And the pIC50 (Androgen receptor [2])?
A: 7.80

Q: How did the pIC50 (Androgen receptor [1]) turn out when CCCCCCN1CC(C)(C)C(Oc2ccc(C#N)c(C(F)(F)F)c2)C1=O (racemic) was run?
A: 6.12

Q: CCCC(C)N1CC(C)(C)C(Oc2ccc(C#N)c(C(F)(F)F)c2)C1=O (racemic) was tested. Which pIC50 (Androgen receptor [1]) did it give?
A: 6.70

Q: And the pIC50 (Androgen receptor [2])?
A: 8.22

Q: With CCC(CC)CN1CC(C)(C)C(Oc2ccc(C#N)c(C(F)(F)F)c2)C1=O (racemic) as the molecule, how does the pIC50 (Androgen receptor [1]) read?
A: 6.35

Q: With CC(C)CCCN1CC(C)(C)C(Oc2ccc(C#N)c(C(F)(F)F)c2)C1=O (racemic) as the molecule, how does the pIC50 (Androgen receptor [1]) read?
A: 6.10

Q: How did the pIC50 (Androgen receptor [1]) turn out when COCN1CC(C)(C)C(Oc2ccc(C#N)c(C(F)(F)F)c2)C1=O (racemic) was run?
A: 6.29

Q: With COCCN1CC(C)(C)C(Oc2ccc(C#N)c(C(F)(F)F)c2)C1=O (racemic) as the molecule, how does the pIC50 (Androgen receptor [1]) read?
A: 5.75

Q: CSCCN1CC(C)(C)C(Oc2ccc(C#N)c(C(F)(F)F)c2)C1=O (racemic) was tested. Which pIC50 (Androgen receptor [1]) did it give?
A: 5.61

Q: With CC1(C)CN(CCCO)C(=O)C1Oc1ccc(C#N)c(C(F)(F)F)c1 (racemic) as the molecule, how does the pIC50 (Androgen receptor [1]) read?
A: 6.28

Q: COC(=O)CN1CC(C)(C)C(Oc2ccc(C#N)c(C(F)(F)F)c2)C1=O (racemic) was tested. Which pIC50 (Androgen receptor [1]) did it give?
A: 6.31

Q: CCOC(=O)CN1CC(C)(C)C(Oc2ccc(C#N)c(C(F)(F)F)c2)C1=O (racemic) was tested. Which pIC50 (Androgen receptor [1]) did it give?
A: 5.45

Q: CCNC(=O)CN1CC(C)(C)C(Oc2ccc(C#N)c(C(F)(F)F)c2)C1=O (racemic) was tested. Which pIC50 (Androgen receptor [1]) did it give?
A: 5.31

Q: CC1(C)CN(Cc2ccccc2)C(=O)C1Oc1ccc(C#N)c(C(F)(F)F)c1 (racemic) was tested. Which pIC50 (Androgen receptor [1]) did it give?
A: 7.52

Q: And the pIC50 (Androgen receptor [2])?
A: 7.96

Q: With COc1cccc(CN2CC(C)(C)C(Oc3ccc(C#N)c(C(F)(F)F)c3)C2=O)c1 (racemic) as the molecule, how does the pIC50 (Androgen receptor [2]) read?
A: 6.51

Q: COc1ccc(CN2CC(C)(C)C(Oc3ccc(C#N)c(C(F)(F)F)c3)C2=O)cc1 (racemic) was tested. Which pIC50 (Androgen receptor [1]) did it give?
A: 6.55

Q: What does the source list for CC1(C)CN(Cc2ccccc2F)C(=O)C1Oc1ccc(C#N)c(C(F)(F)F)c1 (racemic)?
A: pIC50 (Androgen receptor [1]): 6.76; pIC50 (Androgen receptor [2]): 7.36

Q: CC1(C)CN(Cc2cccc(F)c2)C(=O)C1Oc1ccc(C#N)c(C(F)(F)F)c1 (racemic) was tested. Which pIC50 (Androgen receptor [1]) did it give?
A: 7.32

Q: What about the pIC50 (Androgen receptor [2]) of the same molecule?
A: 7.21

Q: CC1(C)CN(Cc2ccc(F)cc2)C(=O)C1Oc1ccc(C#N)c(C(F)(F)F)c1 (racemic) was tested. Which pIC50 (Androgen receptor [2]) did it give?
A: 6.70

Q: CC1(C)CN(Cc2ccccc2O)C(=O)C1Oc1ccc(C#N)c(C(F)(F)F)c1 (racemic) was tested. Which pIC50 (Androgen receptor [2]) did it give?
A: 7.89

Q: With CC1(C)CN(Cc2cccc(O)c2)C(=O)C1Oc1ccc(C#N)c(C(F)(F)F)c1 (racemic) as the molecule, how does the pIC50 (Androgen receptor [2]) read?
A: < 6.22

Q: How did the pIC50 (Androgen receptor [2]) turn out when CC1(C)CN(Cc2ccc(O)cc2)C(=O)C1Oc1ccc(C#N)c(C(F)(F)F)c1 (racemic) was run?
A: 7.49

Q: How did the pIC50 (Androgen receptor [1]) turn out when CC1(C)CN(Cc2ccccn2)C(=O)C1Oc1ccc(C#N)c(C(F)(F)F)c1 (racemic) was run?
A: 6.12

Q: How did the pIC50 (Androgen receptor [1]) turn out when CC1(C)CN(Cc2cccnc2)C(=O)C1Oc1ccc(C#N)c(C(F)(F)F)c1 (racemic) was run?
A: 6.06

Q: How did the pIC50 (Androgen receptor [2]) turn out when CC1(C)CN(Cc2ccncc2)C(=O)C1Oc1ccc(C#N)c(C(F)(F)F)c1 (racemic) was run?
A: < 6.22

Q: With CCOC(=O)c1ccc(CN2CC(C)(C)C(Oc3ccc(C#N)c(C(F)(F)F)c3)C2=O)o1 (racemic) as the molecule, how does the pIC50 (Androgen receptor [1]) read?
A: 6.78

Q: What about the pIC50 (Androgen receptor [2]) of the same molecule?
A: 7.01

Q: COC(=O)c1csc(CN2CC(C)(C)C(Oc3ccc(C#N)c(C(F)(F)F)c3)C2=O)n1 (racemic) was tested. Which pIC50 (Androgen receptor [2]) did it give?
A: < 6.05

Q: CC1(C)CN(Cc2nc3ccccc3s2)C(=O)C1Oc1ccc(C#N)c(C(F)(F)F)c1 (racemic) was tested. Which pIC50 (Androgen receptor [2]) did it give?
A: 7.29

Q: Cc1nc(CN2CC(C)(C)C(Oc3ccc(C#N)c(C(F)(F)F)c3)C2=O)cs1 (racemic) was tested. Which pIC50 (Androgen receptor [1]) did it give?
A: 6.49

Q: How did the pIC50 (Androgen receptor [1]) turn out when CC1(C)CN(Cc2noc(-c3ccccc3)n2)C(=O)C1Oc1ccc(C#N)c(C(F)(F)F)c1 (racemic) was run?
A: 7.08

Q: What about the pIC50 (Androgen receptor [2]) of the same molecule?
A: 7.40

Q: With CC1(C)CN(Cc2nc(-c3ccccc3)no2)C(=O)C1Oc1ccc(C#N)c(C(F)(F)F)c1 (racemic) as the molecule, how does the pIC50 (Androgen receptor [2]) read?
A: 7.27

Q: How did the Activity (Syrian golden hamster [3]) turn out when CCCN1CC(C)(C)C(Oc2ccc(C#N)c(C(F)(F)F)c2)C1=O (single isomer, unassigned; (+)) was run?
A: 85%

Q: And the pIC50 (Androgen receptor [1])?
A: 6.65

Q: And the pIC50 (Androgen receptor [2])?
A: 7.08

Q: And the Activity (Syrian golden hamster [4])?
A: 76%

Q: Which Activity (Syrian golden hamster [5]) does the source give for CCCCN1CC(C)(C)C(Oc2ccc(C#N)c(C(F)(F)F)c2)C1=O (single isomer, unassigned; (+)) here?
A: 66%

Q: And the pIC50 (Androgen receptor [1])?
A: 7.04

Q: And the pIC50 (Androgen receptor [2])?
A: 8.00

Q: What about the Activity (Syrian golden hamster [6]) of the same molecule?
A: 83%

Q: CCC(C)N1CC(C)(C)C(Oc2ccc(C#N)c(C(F)(F)F)c2)C1=O (single isomer, unassigned; (+)) was tested. Which pIC50 (Androgen receptor [1]) did it give?
A: 6.88

Q: What about the pIC50 (Androgen receptor [2]) of the same molecule?
A: 7.49

Q: Which Activity (Syrian golden hamster [7]) does the source give for CC1(C)CN(Cc2ccccc2)C(=O)C1Oc1ccc(C#N)c(C(F)(F)F)c1 (single isomer, unassigned; (+)) here?
A: 83%

Q: And the Activity (Syrian golden hamster [8])?
A: 68%

Q: What about the pIC50 (Androgen receptor [1]) of the same molecule?
A: 7.00

Q: What about the pIC50 (Androgen receptor [2]) of the same molecule?
A: 7.42

Q: What does the source list for CC1(C)CN(Cc2ccccc2F)C(=O)C1Oc1ccc(C#N)c(C(F)(F)F)c1 (single isomer, unassigned; (+))?
A: Activity (Syrian golden hamster [7]): 86%; Activity (Syrian golden hamster [8]): 70%; pIC50 (Androgen receptor [1]): 6.95; pIC50 (Androgen receptor [2]): 7.04

Q: Which Activity (Syrian golden hamster [9]) does the source give for CSc1ccc(CN2CC(C)(C)C(Oc3ccc(C#N)c(C(F)(F)F)c3)C2=O)cc1 (single isomer, unassigned; (+)) here?
A: 75%

Q: What about the Activity (Syrian golden hamster [10]) of the same molecule?
A: 89%

Q: What about the pIC50 (Androgen receptor [1]) of the same molecule?
A: 6.50

Q: What about the pIC50 (Androgen receptor [2]) of the same molecule?
A: 7.55

Q: How did the pIC50 (Androgen receptor [1]) turn out when CCC(C)N1CC(C)(C)C(Oc2ccc(C#N)c(C(F)(F)F)c2)C1=O (stereo in doubt; 18) was run?
A: 5.01

Q: What does the source list for CSc1ccc(CN2CC(C)(C)C(Oc3ccc(C#N)c(C(F)(F)F)c3)C2=O)cc1 (stereo in doubt; 38)?
A: pIC50 (Androgen receptor [1]): 6.73; pIC50 (Androgen receptor [2]): 7.29

Q: How did the Activity (Syrian golden hamster [3]) turn out when CC1(C)C(=O)N(c2ccc(C#N)c(C(F)(F)F)c2)C(=O)N1CCCCO [RU-58841] was run?
A: 95%
